# Target: ROCK2 (Homo sapiens, UniProt O75116)
# Assay: ROCK assay: phosphorylation of FITC peptide substrate, LABCHIP 3000 mobility shift
# Assay type: biochemical
# Conditions: 5 μM ATP, 1.5 μM peptide substrate; read-out: ROCK2 Activity (ROCK IC50 range)
# Summary of the method: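 IC50 values come from curve-fitting percent kinase inhibition across a compound dilution series. The reaction is started with Rho kinase variant in HEPES pH 7.5 buffer with MgCl2, Brij-35 and DTT, with 5 μM ATP, 1.5 μM FITC-labelled peptide and under 2% DMSO. After EDTA quench, product and substrate are separated by microfluidic mobility shift.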
# Sequence of ROCK2 (O75116 whole entry, species assumed): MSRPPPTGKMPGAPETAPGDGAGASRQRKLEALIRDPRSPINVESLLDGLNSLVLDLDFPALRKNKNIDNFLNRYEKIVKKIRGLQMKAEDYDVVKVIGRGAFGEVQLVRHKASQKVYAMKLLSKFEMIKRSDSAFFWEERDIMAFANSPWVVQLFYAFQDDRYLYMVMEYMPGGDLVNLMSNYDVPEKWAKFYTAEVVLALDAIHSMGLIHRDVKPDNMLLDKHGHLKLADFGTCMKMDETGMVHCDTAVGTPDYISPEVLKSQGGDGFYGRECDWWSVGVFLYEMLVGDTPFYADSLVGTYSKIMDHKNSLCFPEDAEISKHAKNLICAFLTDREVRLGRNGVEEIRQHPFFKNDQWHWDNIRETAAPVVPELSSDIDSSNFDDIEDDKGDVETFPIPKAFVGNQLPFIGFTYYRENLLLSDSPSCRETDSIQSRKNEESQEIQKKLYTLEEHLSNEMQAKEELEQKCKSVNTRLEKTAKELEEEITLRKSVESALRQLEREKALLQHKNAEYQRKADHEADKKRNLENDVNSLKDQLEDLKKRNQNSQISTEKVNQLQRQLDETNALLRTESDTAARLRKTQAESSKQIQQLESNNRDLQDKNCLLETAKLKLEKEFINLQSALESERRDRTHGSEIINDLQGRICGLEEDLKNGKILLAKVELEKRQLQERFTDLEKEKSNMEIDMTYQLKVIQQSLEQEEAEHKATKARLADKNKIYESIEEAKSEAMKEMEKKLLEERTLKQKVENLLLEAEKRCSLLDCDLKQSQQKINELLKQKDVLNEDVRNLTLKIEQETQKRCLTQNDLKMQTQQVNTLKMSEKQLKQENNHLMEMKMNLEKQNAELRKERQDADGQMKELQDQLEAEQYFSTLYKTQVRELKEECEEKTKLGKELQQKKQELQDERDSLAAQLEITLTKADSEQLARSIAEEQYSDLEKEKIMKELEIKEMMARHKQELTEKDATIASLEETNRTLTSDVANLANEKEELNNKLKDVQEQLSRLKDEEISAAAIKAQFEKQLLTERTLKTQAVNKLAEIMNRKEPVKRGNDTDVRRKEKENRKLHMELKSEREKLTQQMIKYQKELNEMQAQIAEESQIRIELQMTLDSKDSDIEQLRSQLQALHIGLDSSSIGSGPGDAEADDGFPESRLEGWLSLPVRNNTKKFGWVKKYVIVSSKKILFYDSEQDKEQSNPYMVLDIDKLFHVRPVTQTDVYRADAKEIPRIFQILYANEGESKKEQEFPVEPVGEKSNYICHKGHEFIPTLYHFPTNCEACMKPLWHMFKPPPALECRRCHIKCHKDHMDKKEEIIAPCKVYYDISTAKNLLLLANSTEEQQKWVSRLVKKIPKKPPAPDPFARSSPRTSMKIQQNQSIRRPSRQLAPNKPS
row,Compound,IC50 [nM]
1,"[H][C@]1(c2n[nH]c(=O)c3ccccc32)C[C@@]2(C[C@H](NC(=O)c3cnc4cc(N5CC[C@H](F)C5)ccn34)C2)C1 (stereo partly drawn) [Example 394, 7-((S)-3-fluoropyrrolidin-1-yl)-N-((aR)-6-(4-oxo-3,4-dihydrophthalazin-1-yl)spiro[3.3]heptan-2-yl)imidazo[1,2-a]pyridine-3-carboxamide]",0.2 to 2
2,"[H][C@]1(c2n[nH]c(=O)c3ccccc32)C[C@]2(C[C@@H](NC(=O)c3cnc4cc(N(C)CCOC)ccn34)C2)C1 (stereo partly drawn) [Example 397, 7-((2-methoxy-ethyl)(methyl)amino)-N-((aR)-6-(4-oxo-3,4-dihydrophthalazin-1-yl)spiro[3.3]heptan-2-yl)imidazo[1,2-a]pyridine-3-carboxamide]",0.2 to 2
3,"[H][C@]1(c2n[nH]c(=O)c3ccccc32)C[C@]2(C[C@@H](NC(=O)c3cnc4cc(OCCN5CCCC5)ccn34)C2)C1 (stereo partly drawn) [Example 401, N-((aR)-6-(4-oxo-3,4-dihydrophthalazin-1-yl)spiro[3.3]heptan-2-yl)-7-(2-(pyrrolidin-1-yl)ethoxy)imidazo[1,2-a]pyridine-3-carboxamide]",2.01 to 5
4,"[H][C@]1(c2n[nH]c(=O)c3ccccc32)C[C@]2(C[C@@H](NC(=O)c3cn(CC(C)(C)O)c4cc(=O)ccn34)C2)C1 (stereo partly drawn) [Example 402, 1-(2-hydroxy-2-methylpropyl)-7-oxo-N-((aR)-6-(4-oxo-3,4-dihydrophthalazin-1-yl)spiro[3.3]heptan-2-yl)-1,7-dihydroimidazo[1,2-a]pyridine-3-carboxamide]",100 to 2100
5,"[H][C@]1(c2n[nH]c(=O)c3ccccc32)C[C@]2(C[C@@H](NC(=O)c3cnc4c(F)cc(C(F)(F)F)cn34)C2)C1 (stereo partly drawn) [Example 404, 8-fluoro-N-((aR)-6-(4-oxo-3,4-dihydrophthalazin-1-yl)spiro[3.3]heptan-2-yl)-6-(trifluoromethyl)imidazo[1,2-a]pyridine-3-carboxamide]",15.1 to 100
6,"[H][C@]1(c2n[nH]c(=O)c3ccccc32)C[C@]2(C[C@@H](NC(=O)c3cnc4ccc(F)cn34)C2)C1 (stereo partly drawn) [Example 408, 6-fluoro-N-((aR)-6-(4-oxo-3,4-dihydrophthalazin-1-yl)spiro[3.3]heptan-2-yl)imidazo[1,2-a]pyridine-3-carboxamide]",2.01 to 5
7,"[H][C@]1(c2n[nH]c(=O)c3ccccc32)C[C@]2(C[C@@H](NC(=O)c3cnc4cc(NCC(C)(C)O)ccn34)C2)C1 (stereo partly drawn) [Example 409, 7-((2-hydroxy-2-methylpropyl)amino)-N-((aR)-6-(4-oxo-3,4-dihydrophthalazin-1-yl)spiro[3.3]heptan-2-yl)imidazo[1,2-a]pyridine-3-carboxamide,]",2.01 to 5
8,"[H][C@]1(c2n[nH]c(=O)c3ccccc32)C[C@]2(C[C@@H](NC(=O)c3cnc4cc(C)c(F)cn34)C2)C1 (stereo partly drawn) [Example 410, 6-fluoro-7-methyl-N-((aR)-6-(4-oxo-3,4-dihydrophthalazin-1-yl)spiro[3.3]heptan-2-yl)imidazo[1,2-a]pyridine-3-carboxamide]",2.01 to 5
9,"[H][C@]1(c2n[nH]c(=O)c3ccccc32)C[C@]2(C[C@@H](NC(=O)c3cnc4c(F)cc(F)cn34)C2)C1 (stereo partly drawn) [Example 411, 6,8-difluoro-N-((aR)-6-(4-oxo-3,4-dihydrophthalazin-1-yl)spiro[3.3]heptan-2-yl)imidazo[1,2-a]pyridine-3-carboxamide]",5.1 to 15
10,"[H][C@]1(c2n[nH]c(=O)c3ccccc32)C[C@]2(C[C@@H](NC(=O)c3cnc4c(OCc5ccccc5)cccn34)C2)C1 (stereo partly drawn) [Example 413, 8-(benzyloxy)-N-((aR)-6-(4-oxo-3,4-dihydrophthalazin-1-yl)spiro[3.3]heptan-2-yl)imidazo[1,2-a]pyridine-3-carboxamide]",0.2 to 2
11,"[H][C@]1(c2n[nH]c(=O)c3ccccc32)C[C@]2(C[C@@H](NC(=O)c3ccc(-c4cn[nH]c4)c(OC)c3)C2)C1 (stereo partly drawn) [Example 416, 3-methoxy-N-((aR)-6-(4-oxo-3,4-dihydrophthalazin-1-yl)spiro[3.3]heptan-2-yl)-4-(1H-pyrazol-4-yl)benzamide]",0.2 to 2
12,"[H][C@]1(c2n[nH]c(=O)c3ccccc32)C[C@]2(C[C@@H](NC(=O)c3ccc(-c4cn[nH]c4)c(C#N)c3)C2)C1 (stereo partly drawn) [Example 417, 3-cyano-N-((aR)-6-(4-oxo-3,4-dihydrophthalazin-1-yl)spiro[3.3]heptan-2-yl)-4-(1H-pyrazol-4-yl)benzamide]",0.2 to 2
13,"[H][C@]1(c2n[nH]c(=O)c3ccccc32)C[C@]2(C[C@@H](NC(=O)c3cc4cccc(-c5cnn(C)c5)c4[nH]3)C2)C1 (stereo partly drawn) [Example 420, 7-(1-methyl-1H-pyrazol-4-yl)-N-((aR)-6-(4-oxo-3,4-dihydrophthalazin-1-yl)spiro[3.3]heptan-2-yl)-1H-indole-2-carboxamide]",5.1 to 15

# Second part, the molecule after the results:
row,IC50 [nM],Compound
1,2.01 to 5,"[H][C@]1(c2n[nH]c(=O)c3ccccc32)C[C@@]2(C[C@H](NC(=O)c3cnc4cc(N5CC[C@@H](O)C5)ccn34)C2)C1 (stereo partly drawn) [Example 395, 7-((R)-3-hydroxypyrrolidin-1-yl)-N-((aR)-6-(4-oxo-3,4-dihydrophthalazin-1-yl)spiro[3.3]heptan-2-yl)imidazo[1,2-a]pyridine-3-carboxamide]"
2,2.01 to 5,"[H][C@]1(c2n[nH]c(=O)c3ccccc32)C[C@]2(C[C@@H](NC(=O)c3cnc4cc(N(C)CCO)ccn34)C2)C1 (stereo partly drawn) [Example 396, 7-((2-hydroxy-ethyl)(methyl)amino)-N-((aR)-6-(4-oxo-3,4-dihydrophthalazin-1-yl)spiro[3.3]heptan-2-yl)imidazo[1,2-a]pyridine-3-carboxamide]"
3,0.2 to 2,"[H][C@]1(c2n[nH]c(=O)c3ccccc32)C[C@]2(C[C@@H](NC(=O)c3cnc4cc(OCCN5CCOCC5)ccn34)C2)C1 (stereo partly drawn) [Example 398, 7-(2-morpholinoethoxy)-N-((aR)-6-(4-oxo-3,4-dihydrophthalazin-1-yl)spiro[3.3]heptan-2-yl)imidazo[1,2-a]pyridine-3-carboxamide]"
4,2.01 to 5,"[H][C@]1(c2n[nH]c(=O)c3ccccc32)C[C@]2(C[C@@H](NC(=O)c3cnc4cc(N(C)CC(C)(C)O)ccn34)C2)C1 (stereo partly drawn) [Example 399, 7-((2-hydroxy-2-methyl-propyl)(methyl)amino)-N-((aR)-6-(4-oxo-3,4-dihydrophthalazin-1-yl)spiro[3.3]heptan-2-yl)imidazo[1,2-a]pyridine-3-carboxamide]"
5,0.2 to 2,"[H][C@]1(c2n[nH]c(=O)c3ccccc32)C[C@]2(C[C@@H](NC(=O)c3cnc4cc(OCC(C)(C)O)ccn34)C2)C1 (stereo partly drawn) [Example 400, 7-(2-hydroxy-2-methylpropoxy)-N-((aR)-6-(4-oxo-3,4-dihydrophthalazin-1-yl)spiro[3.3]heptan-2-yl)imidazo[1,2-a]pyridine-3-carboxamide]"
6,2.01 to 5,"[H][C@]1(c2n[nH]c(=O)c3ccccc32)C[C@]2(C[C@@H](NC(=O)c3cnc4cc(C(F)(F)F)ccn34)C2)C1 (stereo partly drawn) [Example 403, N-((aR)-6-(4-oxo-3,4-dihydrophthalazin-1-yl)spiro[3.3]heptan-2-yl)-7-(trifluoromethyl)imidazo[1,2-a]pyridine-3-carboxamide]"
7,0.2 to 2,"[H][C@]1(c2n[nH]c(=O)c3ccccc32)C[C@]2(C[C@@H](NC(=O)c3cnc4c(C)cc(F)cn34)C2)C1 (stereo partly drawn) [Example 405, 6-fluoro-8-methyl-N-((aR)-6-(4-oxo-3,4-dihydrophthalazin-1-yl)spiro[3.3]heptan-2-yl)imidazo[1,2-a]pyridine-3-carboxamide]"
8,0.2 to 2,"[H][C@]1(c2n[nH]c(=O)c3ccccc32)C[C@]2(C[C@@H](NC(=O)c3cnc4cc(OC(F)F)ccn34)C2)C1 (stereo partly drawn) [Example 406, 7-(difluoromethoxy)-N-((aR)-6-(4-oxo-3,4-dihydrophthalazin-1-yl)spiro[3.3]heptan-2-yl)imidazo[1,2-a]pyridine-3-carboxamide]"
9,15.1 to 100,"[H][C@]1(c2n[nH]c(=O)c3ccccc32)C[C@]2(C[C@@H](NC(=O)c3cnc4ccc(F)c(C)n34)C2)C1 (stereo partly drawn) [Example 407, 6-fluoro-5-methyl-N-((aR)-6-(4-oxo-3,4-dihydrophthalazin-1-yl)spiro[3.3]heptan-2-yl)imidazo[1,2-a]pyridine-3-carboxamide]"
10,2.01 to 5,"[H][C@]1(c2n[nH]c(=O)c3ccccc32)C[C@]2(C[C@@H](NC(=O)c3cnc4cc(C)ccn34)C2)C1 (stereo partly drawn) [Example 412, 7-methyl-N-((aR)-6-(4-oxo-3,4-dihydrophthalazin-1-yl)spiro[3.3]heptan-2-yl)imidazo[1,2-a]pyridine-3-carboxamide]"
11,0.2 to 2,"[H][C@]1(c2n[nH]c(=O)c3ccccc32)C[C@]2(C[C@@H](NC(=O)c3cnc4cc(SC)ccn34)C2)C1 (stereo partly drawn) [Example 414, 7-(methylthio)-N-((aR)-6-(4-oxo-3,4-dihydrophthalazin-1-yl)spiro[3.3]heptan-2-yl)imidazo[1,2-a]pyridine-3-carboxamide]"
12,100 to 2100,"[H][C@]1(c2n[nH]c(=O)c3ccccc32)C[C@]2(C[C@@H](NC(=O)c3cc4n(n3)CCNC4=O)C2)C1 (stereo partly drawn) [Example 415, 4-oxo-N-((aR)-6-(4-oxo-3,4-dihydrophthalazin-1-yl)spiro[3,3]heptan-2-yl)-4,5,6,7-tetrahydropyrazolo[1,5-a]pyrazine-2-carboxamide]"
13,0.2 to 2,"[H][C@]1(c2n[nH]c(=O)c3ccccc32)C[C@]2(C[C@@H](NC(=O)c3ccc(-c4cn[nH]c4)c(C)c3)C2)C1 (stereo partly drawn) [Example 418, 3-methyl-N-((aR)-6-(4-oxo-3,4-dihydrophthalazin-1-yl)spiro[3,3]heptan-2-yl)-4-(1H-pyrazol-4-yl)benzamide]"
14,2.01 to 5,"[H][C@]1(c2n[nH]c(=O)c3ccccc32)C[C@]2(C[C@@H](NC(=O)c3ccc(-c4cn[nH]c4)cc3OC)C2)C1 (stereo partly drawn) [Example 419, 2-methoxy-N-((aR)-6-(4-oxo-3,4-dihydrophthalazin-1-yl)spiro[3.3]heptan-2-yl)-4-(1H-pyrazol-4-yl)benzamide]"
15,15.1 to 100,"[H][C@]1(c2n[nH]c(=O)c3ccccc32)C[C@]2(C[C@@H](NC(=O)c3ccc4c(c3)COc3cncnc3-4)C2)C1 (stereo partly drawn) [Example 421, N-((aR)-6-(4-oxo-3,4-dihydrophthalazin-1-yl)spiro[3.3]heptan-2-yl)-6H-isochromeno[4,3-d]pyrimidine-8-carboxamide]"
